This is an account of results in US20100130439A1, “GENOMIC MUTATION INHIBITORS THAT INHIBIT Y FAMILY DNA POLYMERASES” (priority 2007, published 2010).

Experiment [1] has as its system wild-type and the isolated mutant cells. Description: MIC of AZT against wild-type and isolated mutant cells. Type of experiment: cell-based, E. coli. The method, then:
(§1) Characterization of mutants. The MICs were determined of over one hundred isolated antibiotic-resistant colonies. All of the ciprofloxacin-resistant mutants had MICs of 480 ng/mL (FIG. 2B). The ciprofloxacin resistance mutants contained a CG to TA transition translating into a Ser 83→Leu mutation in DNA gyrase. This mutation is known to provide the greatest ciprofloxacin resistance obtainable in a single step (Drlica K, Zhao X (1997) Microbiol Mol Biol Rev 61: 377-392).

Another experiment concerns CC 102. Put plainly: MIC of AZT against CC102. Type of experiment: cell-based, E. coli. The following applies: Escherichia coli, read-out: AZT MIC. An excerpt:
One strain, CC102, required a GC to AT transition.

Experiment [2] deals with most gram-negative bacteria. Particulars: Elwell et al. 1987; cited from earlier work.
Experiment [3] deals with ciprofloxacin-resistant mutants. Put plainly: MIC of isolated ciprofloxacin-resistant colonies. Type of experiment: cell-based, E. coli. The following applies: Escherichia coli. The method, then:
as §1

The subject of experiment [4] is wild-type MG1655 K12 E. coli. The experiment is classed as cell-based. Particulars: d4T 6 μg/mL.
Experiment [5] concerns triclosan-resistant mutants. Put plainly: MIC of isolated triclosan-resistant colonies. Type of experiment: cell-based, E. coli. Particulars: Escherichia coli. Here is the method:
as §1
The vast majority of isolated triclosan-resistant mutants (˜85%) had MICs of 16 μg/mL. These colonies had acquired a GC to TA transversion resulting in a Gly 93→Val mutation in FabI, the known protein target of triclosan (FIG. 2B). This mutation is known to produce the greatest triclosan resistance possible via a single step (McMurry L, Oethinger M, Levy S (1998) Nature 394: 531-532). […] It is, therefore, reasonable that the frequency of UV-induced triclosan-resistant mutants is considerably lower (˜8-fold) than the frequency of UV-induced ciprofloxacin-resistant mutants. The remaining triclosan-resistant mutants (˜15%) had MICs between 2-4 μg/mL. These included three different mutations of Phe 203 in FabI: a TA to CG transition giving serine, a TA to GC transversion giving valine, and a TA to GC transversion giving cystine (FIG. 2B). […]

The MIC is the lowest concentration found to suppress growth. `Cc1cn([C@H]2C[C@H](N=[N+]=[N-])[C@@H](CO)O2)c(=O)[nH]c1=O` [AZT, 3′-azido-2′-deoxythymidine]: the minimum inhibitory concentration (MIC) in experiment [1] (both the wild-type and the isolated ciprofloxacin-/triclosan-resistant mutant cells) amounted to 10 ng/mL; in the experiment with CC 102, 0.02 µg/mL. Further, the “sensitivity to AZT” value in experiment [1] (several rifampicin-resistant mutants) is given as “varying sensitivities”. In addition, the antibacterial activity entry in experiment [2] is “antibacterial activity”.
Turning to `O=C(O)c1cn(C2CC2)c2cc(N3CCNCC3)c(F)cc2c1=O` [ciprofloxacin], in experiment [3], the minimal inhibitory concentration (MIC) worked out at 0.48 µg/mL.
Consider `Cc1cn([C@H]2C=C[C@@H](CO)O2)c(=O)[nH]c1=O` [d4T, 2′,3′-didehydro-3′-deoxythymidine], for which, in experiment [4], the “UV-induced generation of mutations that confer resistance to ciprofloxacin” value is reported as “inhibits”. Besides, in experiment [2], the antibacterial activity result is given as “antibacterial activity”.
For `Oc1cc(Cl)ccc1Oc1ccc(Cl)cc1Cl` [triclosan], the minimal inhibitory concentration (MIC) is 2 to 4 µg/mL in experiment [5] (remaining (~15%) triclosan-resistant mutants (FabI Phe 203 mutations)) and 16 µg/mL in experiment [5] (vast majority (~85%) of triclosan-resistant mutants (FabI Gly 93→Val)).
